Biological target: GST-Bc1-2 (Homo sapiens, UniProt P10415)
Assay: Time Resolved-Fluorescence Resonance Energy Transfer (TR-FRET) Bcl-2 binding assay with F-Bak peptide probe
Conditions: GST-Bcl-2 1 nM, F-Bak probe 100 nM, Tb-anti-GST 1 nM; '<' = below limit of detection; read-out: TR-FRET Bcl-2 Binding Ki

Chain of GST-Bc1-2 (P10415 whole entry): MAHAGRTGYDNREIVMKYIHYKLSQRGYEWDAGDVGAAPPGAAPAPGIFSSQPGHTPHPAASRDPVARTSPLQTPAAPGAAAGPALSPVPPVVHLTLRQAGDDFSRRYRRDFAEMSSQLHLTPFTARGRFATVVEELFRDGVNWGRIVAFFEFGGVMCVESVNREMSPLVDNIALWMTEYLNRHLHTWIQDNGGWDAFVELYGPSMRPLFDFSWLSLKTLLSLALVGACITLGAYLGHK

Compound | Ki
CC1(C)CCC(CN2CCN(c3ccc(C(=O)NS(=O)(=O)c4ccc(NCC5CN(C(CF)CF)CCO5)c([N+](=O)[O-])c4)c(Oc4cnc5[nH]ccc5c4)c3)CC2)=C(c2ccc(Cl)cc2)C1 (stereo not shown) [Example 252, 4-(4-{[2-(4-chlorophenyl)-4,4-dimethylcyclohex-1-en-1-yl]methyl}piperazin-1-yl)-N-{[4-({[4-(1,3-difluoropropan-2-yl)morpholin-2-yl]methyl}amino)-3-nitrophenyl]sulfonyl}-2-(1H-pyrrolo[2,3-b]pyridin-5-yloxy)benzamide] | < 0.01 nM
CC1(C)CCC(CN2CCN(c3ccc(C(=O)NS(=O)(=O)c4ccc(NC5CCN(C6CCOCC6)CC5)c([N+](=O)[O-])c4)c(Oc4cnc5[nH]ccc5c4)c3)CC2)=C(c2ccc(Cl)cc2)C1 [Example 3, 4-(4-{[2-(4-chlorophenyl)-4,4-dimethylcyclohex-1-en-1-yl]methyl}piperazin-1-yl)-N-({3-nitro-4-[(1-tetrahydro-2H-pyran-4-ylpiperidin-4-yl)amino]phenyl}sulfonyl)-2-(1H-pyrrolo[2,3-b]pyridin-5-yloxy)benzamide] | 0.013 nM
CC1(C)CCC(CN2CCN(c3ccc(C(=O)NS(=O)(=O)c4cnc(O[C@@H]5CCN(C(CF)CF)C5)c(Cl)c4)c(Oc4cnc5[nH]ccc5c4)c3)CC2)=C(c2ccc(Cl)cc2)C1 [Example 274, N-[(5-chloro-6-{[(3R)-1-(1,3-difluoropropan-2-yl)pyrrolidin-3-yl]oxy}pyridin-3-yl)sulfonyl]-4-(4-{[2-(4-chlorophenyl)-4,4-dimethylcyclohex-1-en-1-yl]methyl}piperazin-1-yl)-2-(1H-pyrrolo[2,3-b]pyridin-5-yloxy)benzamide] | 0.04 nM
O=C(NS(=O)(=O)c1cnc(OCC2(F)CCOCC2)c(Cl)c1)c1ccc(N2CCC(F)(Cc3ccccc3-c3ccc(Cl)cc3)CC2)cc1Oc1cnc2[nH]ccc2c1 [Example 272, 4-{4-[(4′-chlorobiphenyl-2-yl)methyl]-4-fluoropiperidin-1-yl}-N-({5-chloro-6-[(4-fluorotetrahydro-2H-pyran-4-yl)methoxy]pyridin-3-yl}sulfonyl)-2-(1H-pyrrolo[2,3-b]pyridin-5-yloxy)benzamide] | 0.031 nM
CC1(C)CCC(CN2CCN(c3ccc(C(=O)NS(=O)(=O)c4cnc(OCC5(F)CCOCC5)c(C(F)(F)F)c4)c(Oc4cnc5[nH]ccc5c4)c3)CC2)=C(c2ccc(Cl)cc2)C1 [Example 208, 4-(4-{[2-(4-chlorophenyl)-4,4-dimethylcyclohex-1-en-1-yl]methyl}piperazin-1-yl)-N-{[6-[(4-fluorotetrahydro-2H-pyran-4-yl)methoxy]-5-(trifluoromethyl)pyridin-3-yl]sulfonyl}-2-(1H-pyrrolo[2,3-b]pyridin-5-yloxy)benzamide] | 0.104 nM
COCC1(C)CCC(c2ccc(Cl)cc2)=C(CN2CCN(c3ccc(C(=O)NS(=O)(=O)c4ccc(NCC5CCOCC5)c([N+](=O)[O-])c4)c(Oc4cnc5[nH]ccc5c4)c3)CC2)C1 (stereo not shown) [Example 360, 4-(4-{[2-(4-chlorophenyl)-5-(methoxymethyl)-5-methylcyclohex-1-en-1-yl]methyl}piperazin-1-yl)-N-({3-nitro-4-[(tetrahydro-2H-pyran-4-ylmethyl)amino]phenyl}sulfonyl)-2-(1H-pyrrolo[2,3-b]pyridin-5-yloxy)benzamide] | < 0.01 nM
CC1(C)CCC(CN2CCN(c3ccc(C(=O)NS(=O)(=O)c4cnc(OCC5(F)CCOCC5)c(C#N)c4)c(Oc4cnc5[nH]ccc5c4)c3)CC2)=C(c2ccc(Cl)cc2)C1 [Example 56, 4-(4-{[2-(4-chlorophenyl)-4,4-dimethylcyclohex-1-en-1-yl]methyl}piperazin-1-yl)-N-({5-cyano-6-[(4-fluorotetrahydro-2H-pyran-4-yl)methoxy]pyridin-3-yl}sulfonyl)-2-(1H-pyrrolo[2,3-b]pyridin-5-yloxy)benzamide] | 0.037 nM
CC1(C)CCC(c2ccc(Cl)cc2)=C(CN2CCN(c3ccc(C(=O)NS(=O)(=O)c4ccc(NCC5CCOCC5)c([N+](=O)[O-])c4)c(Oc4cnc5[nH]ccc5c4)c3)CC2)C1 [Example 75, 4-(4-{[2-(4-chlorophenyl)-5,5-dimethylcyclohex-1-en-1-yl]methyl}piperazin-1-yl)-N-({3-nitro-4-[(tetrahydro-2H-pyran-4-ylmethyl)amino]phenyl}sulfonyl)-2-(1H-pyrrolo[2,3-b]pyridin-5-yloxy)benzamide] | < 0.01 nM
O=C(NS(=O)(=O)c1ccc(NCC2CN(C3CC3)CCO2)c([N+](=O)[O-])c1)c1ccc(N2CCN(CC3=C(c4ccc(Cl)cc4)CC4(CC3)CC4)CC2)cc1Oc1cnc2[nH]ccc2c1 (stereo not shown) [Example 330, 4-(4-{[5-(4-chlorophenyl)spiro[2.5]oct-5-en-6-yl]methyl}piperazin-1-yl)-N-[(4-{[(4-cyclopropylmorpholin-2-yl)methyl]amino}-3-nitrophenyl)sulfonyl]-2-(1H-pyrrolo[2,3-b]pyridin-5-yloxy)benzamide] | < 0.01 nM
CC1(C)CCC(CN2CCN(c3ccc(C(=O)NS(=O)(=O)c4ccc(OCC5(F)CCN(S(C)(=O)=O)CC5)c([N+](=O)[O-])c4)c(Oc4cnc5[nH]ccc5c4)c3)CC2)=C(c2ccc(Cl)cc2)C1 [Example 194, 4-(4-{[2-(4-chlorophenyl)-4,4-dimethylcyclohex-1-en-1-yl]methyl}piperazin-1-yl)-N-[(4-{[4-fluoro-1-(methylsulfonyl)piperidin-4-yl]methoxy}-3-nitrophenyl)sulfonyl]-2-(1H-pyrrolo[2,3-b]pyridin-5-yloxy)benzamide] | < 0.01 nM
CN1CCC[C@H]1C(=O)N1CCC(COc2ccc(S(=O)(=O)NC(=O)c3ccc(N4CCN(CC5=C(c6ccc(Cl)cc6)CC(C)(C)CC5)CC4)cc3Oc3cnc4[nH]ccc4c3)cc2Cl)CC1 [Example 312, N-[(3-chloro-4-{[1-(1-methyl-L-prolyl)piperidin-4-yl]methoxy}phenyl)sulfonyl]-4-(4-{[2-(4-chlorophenyl)-4,4-dimethylcyclohex-1-en-1-yl]methyl}piperazin-1-yl)-2-(1H-pyrrolo[2,3-b]pyridin-5-yloxy)benzamide] | < 0.01 nM
CC1(C)CCC(CN2CCN(c3ccc(C(=O)NS(=O)(=O)c4ccc(N[C@@H]5CC[C@H](N6CCOCC6)C5)c([N+](=O)[O-])c4)c(Oc4cnc5[nH]ccc5c4)c3)CC2)=C(c2ccc(Cl)cc2)C1 [Example 112, 4-(4-{[2-(4-chlorophenyl)-4,4-dimethylcyclohex-1-en-1-yl]methyl}piperazin-1-yl)-N-[(4-{[(1R,3S)-3-morpholin-4-ylcyclopentyl]amino}-3-nitrophenyl)sulfonyl]-2-(1H-pyrrolo[2,3-b]pyridin-5-yloxy)benzamide] | < 0.01 nM
CC1(C)CCC(CN2CCN(c3ccc(C(=O)NS(=O)(=O)c4ccc(NC5CN(C6COC6)C5)c([N+](=O)[O-])c4)c(Oc4cnc5[nH]ccc5c4)c3)CC2)=C(c2ccc(Cl)cc2)C1 [Example 256, 4-(4-{[2-(4-chlorophenyl)-4,4-dimethylcyclohex-1-en-1-yl]methyl}piperazin-1-yl)-N-[(3-nitro-4-{[1-(oxetan-3-yl)azetidin-3-yl]amino}phenyl)sulfonyl]-2-(1H-pyrrolo[2,3-b]pyridin-5-yloxy)benzamide] | < 0.01 nM
CC1(C)CCC(CN2CCN(c3ccc(C(=O)NS(=O)(=O)c4ccc(OCC5(F)CCN(C6CCOCC6)CC5)c([N+](=O)[O-])c4)c(Oc4cnc5[nH]ccc5c4)c3)CC2)=C(c2ccc(Cl)cc2)C1 [Example 192, 4-(4-{[2-(4-chlorophenyl)-4,4-dimethylcyclohex-1-en-1-yl]methyl}piperazin-1-yl)-N-({4-[(4-fluoro-1-tetrahydro-2H-pyran-4-ylpiperidin-4-yl)methoxy]-3-nitrophenyl}sulfonyl)-2-(1H-pyrrolo[2,3-b]pyridin-5-yloxy)benzamide] | < 0.01 nM
CC1(C)CCC(CN2CCN(c3ccc(C(=O)NS(=O)(=O)c4cnc(OC[C@H]5CC[C@H](O)CC5)c(Cl)c4)c(Oc4cnc5[nH]ccc5c4)c3)CC2)=C(c2ccc(Cl)cc2)C1 [Example 298, N-({5-chloro-6-[(trans-4-hydroxycyclohexyl)methoxy]pyridin-3-yl}sulfonyl)-4-(4-{[2-(4-chlorophenyl)-4,4-dimethylcyclohex-1-en-1-yl]methyl}piperazin-1-yl)-2-(1H-pyrrolo[2,3-b]pyridin-5-yloxy)benzamide] | < 0.01 nM
CCN(C)C(=O)N1CCOC(CNc2ccc(S(=O)(=O)NC(=O)c3ccc(N4CCN(CC5=C(c6ccc(Cl)cc6)CC(C)(C)CC5)CC4)cc3Oc3cnc4[nH]ccc4c3)cc2Cl)C1 (stereo not shown) [Example 333, 2-{[(2-chloro-4-{[4-(4-{[2-(4-chlorophenyl)-4,4-dimethylcyclohex-1-en-1-yl]methyl}piperazin-1-yl)-2-(1H-pyrrolo[2,3-b]pyridin-5-yloxy)benzoyl]sulfamoyl}phenyl)amino]methyl}-N-ethyl-N-methylmorpholine-4-carboxamide] | 0.511 nM
CCN(C)C(=O)N1CCO[C@H](COc2ncc(S(=O)(=O)NC(=O)c3ccc(N4CCN(CC5=C(c6ccc(Cl)cc6)CC(C)(C)CC5)CC4)cc3Oc3cnc4[nH]ccc4c3)cc2Cl)C1 [Example 334, (2S)-2-{[(3-chloro-5-{[4-(4-{[2-(4-chlorophenyl)-4,4-dimethylcyclohex-1-en-1-yl]methyl}piperazin-1-yl)-2-(1H-pyrrolo[2,3-b]pyridin-5-yloxy)benzoyl]sulfamoyl}pyridin-2-yl)oxy]methyl}-N-ethyl-N-methylmorpholine-4-carboxamide] | 0.572 nM
CN(C)CC(=O)N1CCO[C@@H](CNc2ccc(S(=O)(=O)NC(=O)c3ccc(N4CCN(CC5=C(c6ccc(Cl)cc6)CC(C)(C)CC5)CC4)cc3Oc3cnc4[nH]ccc4c3)cc2[N+](=O)[O-])C1 [Example 259, 4-(4-{[2-(4-chlorophenyl)-4,4-dimethylcyclohex-1-en-1-yl]methyl}piperazin-1-yl)-N-{[4-({[(2S)-4-(N,N-dimethylglycyl)morpholin-2-yl]methyl}amino)-3-nitrophenyl]sulfonyl}-2-(1H-pyrrolo[2,3-b]pyridin-5-yloxy)benzamide] | < 0.01 nM

Same assay, conditions: Table 5, direct comparison Z=N vs Z=C analogs; read-out: Bcl-2 FRET ki

Compound | Ki
CC1(C)CCC(CN2CCN(c3ccc(C(=O)NS(=O)(=O)c4ccc(NC5CCN(C6CCOCC6)CC5)c([N+](=O)[O-])c4)c(Oc4cnc5[nH]ccc5c4)c3)CC2)=C(c2ccc(Cl)cc2)C1 [Example 3, 4-(4-{[2-(4-chlorophenyl)-4,4-dimethylcyclohex-1-en-1-yl]methyl}piperazin-1-yl)-N-({3-nitro-4-[(1-tetrahydro-2H-pyran-4-ylpiperidin-4-yl)amino]phenyl}sulfonyl)-2-(1H-pyrrolo[2,3-b]pyridin-5-yloxy)benzamide] | 0.013 nM

Source: US8580794B2 (AbbVie Inc., priority 2009, dated 2013)
